What was measured:
[1] = system: fibronectin, COL1A1, and α-SMA; assay: Western blot of fibrosis markers in TGF-β1-induced fibrotic LL29 cells; type: cell-based, human; conditions: LL29 cells stimulated with TGF-β1 5 ng/ml, normalized to α-tubulin
Experimental: In the in vitro experiments, cells were pre-treated with test compounds and subsequently stimulated with recombinant TGF-β1 to induce fibrotic processes. TGF-β1 plays a critical role in epithelial-mesenchymal transition (EMT), a key driver in the differentiation of fibroblasts into myofibroblasts. LL29 cells, derived from IPF patient lung fibroblasts, were obtained from ATCC®. Upon reaching 70% confluence, cells were pre-treated with selected concentrations of GMI in low-serum media for 2 hours, followed by exposure to 5 ng/ml of recombinant human TGF-β1 (R&D Systems, MN, USA) for 48 hours.
Cell lysates were prepared in RIPA buffer. […] Protein expression was quantified using Fiji software.
The present invention evaluated the expression levels of fibronectin, COL1A1, and alpha-smooth muscle actin (α-SMA), as these proteins are key markers associated with myofibroblasts and extracellular matrix (ECM) remodeling.
FIG. 3 (A) presents the results of Western blot analysis showing the expression of fibronectin, COL1A1, α-SMA, and the internal loading control α-tubulin. FIGS. 3 (B), (C) and (D) show the quantification of protein expression based on band intensity, represented as fold changes in the ratios of fibronectin/α-tubulin, COL1A1/α-tubulin, and α-SMA/α-tubulin, normalized to the untreated control (NT) group. […]

[2] = system: BLM-induced pulmonary fibrosis; assay: BLM-induced pulmonary fibrosis mouse model; type: in vivo, C57BL/6J mice; conditions: BLM 2.5 U/kg mice
Experimental: Four groups were intratracheally administered bleomycin (BLM; 2.5 U/kg) to induce pulmonary fibrosis, while one group served as a normal control. The treatment groups included: BLM-only, BLM+GMI (1 mg/kg), BLM+GMI (2 mg/kg), and BLM+PFD (200 mg/kg). All surviving animals were sacrificed on day 22.

## Cc1ccc(=O)n(-c2ccccc2)c1 [PFD, pirfenidone]
[1]
  expression levels of fibronectin, COL1A1 and α-SMA: failed to suppress the TGF-β1-induced upregulation
[2]; PFD 200 mg/kg
  survival rate: 50%
[2]; compared to normal group
  lung appearance (gross examination, color): color and appearance comparable to the normal group
